One assay has as its target T1, HDAC1 enzyme (Homo sapiens, UniProt Q13547).
T1 construct: Amplification of human HDAC1 coding region from this cDNA library was cloned separately into the baculovirus expression pDEST20 vector; made in house; host or cells: SF9 insect cells, pDEST20-HDAC1 baculovirus
As to the kind of experiment: In vitro HDAC assay for determination of IC50 values (BIOMOL fluorescent-based HDAC activity assay). In kind it is biochemical. As for the experimental part:
Human cDNA library was prepared using cultured SW620 cells. Amplification of human HDAC1 coding region from this cDNA library was cloned separately into the baculovirus expression pDEST20 vector (GATEWAY Cloning Technology, Invitrogen Pte Ltd). The pDEST20-HDAC1 construct was confirmed by DNA sequencing. Recombinant baculovirus was prepared using the Bac-To-Bac method following the manufacturer's instruction (Invitrogen Pte Ltd).
Expression of GST-HDAC1 was done by infecting SF9 cells (Invitrogen Pte Ltd) with pDEST20-HDAC1 baculovirus at MOI=1 for 48 h. Soluble cell lysate was incubated with pre-equilibrated Glutathione Sepharose 4B beads (Amersham) at 4° C. for 2 h. The beads were washed with PBS buffer for 3 times. The GST-HDAC1 protein was eluted by elution buffer containing 50 mM Tris, pH8.0, 150 mM NaCl, 1% Triton X-100 and 10 mM or 20 mM reduced Glutathione. The purified GST-HDAC1 protein was dialyzed with HDAC storage buffer containing 10 mM Tris, pH7.5, 100 mM NaCl and 3 mM MgCl2. 20% Glycerol was added to purified GST-HDAC1 protein before storage at −80° C.
The assay has been carried out in 96 well format and the BIOMOL fluorescent-based HDAC activity assay has been applied. […] Flur de lys Developer was added and the reaction was incubated for 10 min. Briefly, deacetylation of the substrate sensitizes it to the developer, which then generates a fluorophore. The fluorophore is excited with 360 nm light and the emitted light (460 nm) is detected on a fluorometric plate reader (Tecan Ultra Microplate detection system, Tecan Group Ltd.).
The analytical software, Prism 4.0 (GraphPad Software Inc) has been used to generate IC50 from a series of data.

A further assay concerns Colo205 cells. As to the kind of experiment: Cell-based proliferation assay for GI50 (CyQUANT), Colo205. The conditions noted are these: Homo sapiens, COLO 205, 96 h treatment, read-out: Cellular or Growth Inhibition Activity in Colo205 cells, GI50. As for the experimental part: Human colon cancer cell lines (Colo205, HCT116), Ovarian cancer cell line (A2780), Hepatoma cell line (HEP3B), Prostate cancer cell line (PC3) were obtained from ATCC or ECACC. Colo205 cells were cultivated in RPMI 1640 containing 2 mM L-Glutamine, 5% FBS, 1.0 mM Na Pyruvate, 1 U/ml of penicillin and 1 μg of streptomycin. HCT116 cells were cultivated in McCoy's containing RPMI 1640 containing 2 mM L-Glutamine, 5% FBS, 1 U/ml of penicillin and 1 μg of streptomycin. A2780 cells were cultivated in RPMI 1640 containing 2 mM L-Glutamine, 5% FBS, 1 U/ml of penicillin and 1 μg of streptomycin. HEP3B cells were cultivated in EMEM containing 2 mM L-glutamine, 5% FBS, 1% non essential amino acid, 1 mM Na Pyruvate, 1 U/ml of penicillin and 1 μg of streptomycin. PC3 cells were cultivated in F12K, 2 mM L-glutamine, 5% FBS, 1 U/ml of penicillin and 1 μg of streptomycin. PC3, Colo205, and HCT116 cells were seeded in 96-wells plate at 1000, 5000 and 6000 cells per well respectively. A2780 and HEP3B cells were seeded in 96-wells plate at 4000 cells per well respectively. The plates were incubated at 37° C., 5% CO2, for 24 h. Cells were treated with compounds at various concentrations for 96 h. Cell growth was then monitored using CyQUANT® cell proliferation assay (Invitrogen Pte Ltd). Dose response curves were plotted to determine GI50 values for the compounds using XL-fit (ID Business Solution, Emeryville, Calif.). GI50 is defined as the concentration of compound required for 50% inhibition of cell growth.

T1 sequence (Q13547 whole entry): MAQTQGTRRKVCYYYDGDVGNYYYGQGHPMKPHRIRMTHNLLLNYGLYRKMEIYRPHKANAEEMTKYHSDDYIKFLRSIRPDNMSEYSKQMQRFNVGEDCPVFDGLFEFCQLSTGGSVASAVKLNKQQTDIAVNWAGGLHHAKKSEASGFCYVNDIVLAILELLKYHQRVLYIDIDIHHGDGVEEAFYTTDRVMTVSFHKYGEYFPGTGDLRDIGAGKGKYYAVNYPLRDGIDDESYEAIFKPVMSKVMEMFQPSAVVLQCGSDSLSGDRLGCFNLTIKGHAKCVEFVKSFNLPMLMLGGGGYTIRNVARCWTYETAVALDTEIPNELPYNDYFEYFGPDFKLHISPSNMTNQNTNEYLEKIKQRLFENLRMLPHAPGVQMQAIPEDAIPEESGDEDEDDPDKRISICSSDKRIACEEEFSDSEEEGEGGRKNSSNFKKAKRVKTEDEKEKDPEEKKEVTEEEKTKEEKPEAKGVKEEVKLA

At HDAC1 enzyme, `CCCCCCCCc1nc2cc(/C=C/C(=O)NO)ccc2n1CCNC` [Compound 76, N-Hydroxy-3-[1-(2-methylamino-ethyl)-2-octyl-1H-benzoimidazol-5-yl]-acrylamide] returned an IC50 of 0.018 µM. Besides, the GI50 with Colo205 cells was 0.29 µM.

Molecule `CCCCCCCCc1nc2cc(/C=C/C(=O)NO)ccc2n1CCN` [Compound 77, 3-[1-(2-Amino-ethyl)-2-octyl-1H-benzoimidazol-5-yl]-N-hydroxy-acrylamide] displayed an IC50 on HDAC1 enzyme of 0.026 µM. The concentration for 50% growth inhibition (GI50) with Colo205 cells turned out to be 0.67 µM.

Molecule `CCCCCc1nc2cc(/C=C/C(=O)NO)ccc2n1CCN(C)CC` [Compound 79, 3-{1-[2-(Ethyl-methyl-amino)-ethyl]-2-pentyl-1H-benzoimidazol-5-yl}-N-hydroxy-acrylamide] had an IC50 against HDAC1 enzyme of 0.04 µM. The GI50 in the assay with Colo205 cells came out at 0.45 µM.

Regarding `CCCCc1nc2cc(/C=C/C(=O)NO)ccc2n1C1CCN(C)C1` (stereo not shown) [Compound 81, 3-[2-Butyl-1-(1-methyl-pyrrolidin-3-yl)-1H-benzoimidazol-5-yl]-N-hydroxy-acrylamide], inhibition on HDAC1 enzyme was half-maximal at 0.12 µM (IC50). The GI50 in the assay with Colo205 cells was determined as 1 µM.

On HDAC1 enzyme, `CCCCCc1nc2cc(/C=C/C(=O)NO)ccc2n1CCN(CC)CCOC` [Compound 84, 3-(1-{2-[Ethyl-(2-methoxy-ethyl)-amino]-ethyl}-2-pentyl-1H-benzoimidazol-5-yl)-N-hydroxy-acrylamide] returned an IC50 of 0.063 µM. Moreover, in the assay with Colo205 cells, the GI50 came to 1.03 µM.

In the case of `CCCCc1nc2cc(/C=C/C(=O)NO)ccc2n1CCN(C)CC` [Compound 85, 3-{2-Butyl-1-[2-(ethyl-methyl-amino)-ethyl]-1H-benzoimidazol-5-yl}-N-hydroxy-acrylamide], inhibition at HDAC1 enzyme was half-maximal at 0.11 µM (IC50). For the same molecule, the GI50 in the assay with Colo205 cells was determined as 1.52 µM.

For `CCCCCc1nc2cc(/C=C/C(=O)NO)ccc2n1C1CCCN(C)C1` (stereo not shown) [Compound 86, N-Hydroxy-3-[1-(1-methyl-piperidin-3-yl)-2-pentyl-1H-benzoimidazol-5-yl]-acrylamide], half-maximal inhibition on HDAC1 enzyme (IC50) required 0.16 µM. Further, in the assay on Colo205 cells, the GI50 amounted to 2.08 µM.

On HDAC1 enzyme, `CCCCCCN(CC)CCn1cnc2cc(/C=C/C(=O)NO)ccc21` [Compound 87, 3-{1-[2-(Ethyl-hexyl-amino)-ethyl]-1H-benzoimidazol-5-yl}-N-hydroxy-acrylamide] returned an IC50 of 0.1 µM. Also, in the assay on Colo205 cells, the GI50 turned out to be 1.07 µM.

In the case of `CCCCCCCN(CC)CCn1cnc2cc(/C=C/C(=O)NO)ccc21` [Compound 89, 3-{1-[2-(Ethyl-heptyl-amino)-ethyl]-1H-benzoimidazol-5-yl}-N-hydroxy-acrylamide], the half-inhibitory concentration (IC50) on HDAC1 enzyme came to 0.08 µM. In addition, the GI50 in the assay with Colo205 cells stood at 0.87 µM.

In turn, `CCCCCCc1nc2cc(/C=C/C(=O)NO)ccc2n1C1CCCN(CCO)C1` (stereo not shown) [Compound 90, 3-{2-Hexyl-1-[1-(2-hydroxy-ethyl)-piperidin-3-yl]-1H-benzoimidazol-5-yl}-N-hydroxy-acrylamide] registered an IC50 against HDAC1 enzyme of 0.51 µM. For the same molecule, in the assay on Colo205 cells, the GI50 was 8.1 µM.

For the molecule `CCCCc1nc2cc(/C=C/C(=O)NO)ccc2n1CCN(CC)CCCO` [Compound 91, 3-(2-Butyl-1-{2-[ethyl-(3-hydroxy-propyl)-amino]-ethyl}-1H-benzoimidazol-5-yl)-N-hydroxy-acrylamide], the IC50 at HDAC1 enzyme was determined as 0.06 µM. For the same molecule, in the assay on Colo205 cells, the 50% growth inhibitory concentration (GI50) worked out at 2.4 µM.

The molecule `CCCCCc1nc2cc(/C=C/C(=O)NO)ccc2n1CCN(CC)CCCO` [Compound 92, 3-(1-{2-[Ethyl-(3-hydroxy-propyl)-amino]-ethyl}-2-pentyl-1H-benzoimidazol-5-yl)-N-hydroxy-acrylamide] had a half-inhibitory concentration (IC50) against HDAC1 enzyme of 0.05 µM. Further, in the assay on Colo205 cells, the GI50 stood at 1.82 µM.

`O=C(/C=C/c1ccc2c(c1)ncn2C1CCN(CCc2ccccc2)C1)NO` (stereo not shown) [Compound 93, (E)-N-hydroxy-3-(1-(1-phenethylpyrrolidin-3-yl)-1H-benzo[d]imidazol-5-yl)acrylamide]: the IC50 on HDAC1 enzyme amounted to 0.23 µM. Also, the GI50 with Colo205 cells was found to be 2.14 µM.

With `CCCCCN1CCCC(n2cnc3cc(/C=C/C(=O)NO)ccc32)C1` (stereo not shown) [Compound 94, (E)-N-hydroxy-3-(1-(1-pentylpiperidin-3-yl)-1H-benzo[d]imidazol-5-yl)acrylamide], inhibition against HDAC1 enzyme was half-maximal at 0.064 µM (IC50). Moreover, in the assay on Colo205 cells, the GI50 amounted to 0.6 µM.

At HDAC1 enzyme, `CCCCN(CC)CCn1cnc2cc(/C=C/C(=O)NO)ccc21` [Compound 95, 3-{1-[2-(Butyl-ethyl-amino)-ethyl]-1H-benzoimidazol-5-yl}-N-hydroxy-acrylamide] displayed an IC50 of 0.052 µM. Further, the GI50 in the assay on Colo205 cells came to 0.57 µM.

In turn, `O=C(/C=C/c1ccc2c(c1)ncn2C1CCCN(CCc2ccccc2)C1)NO` (stereo not shown) [Compound 96, (E)-N-hydroxy-3-(1-(1-phenethylpiperidin-3-yl)-1H-benzo[d]imidazol-5-yl)acrylamide] returned an IC50 against HDAC1 enzyme of 0.08 µM. Moreover, the GI50 with Colo205 cells amounted to 0.7 µM.

In the case of `O=C(/C=C/c1ccc2c(c1)ncn2C1CCCN(CCCc2ccccc2)C1)NO` (stereo not shown) [Compound 97, (E)-N-hydroxy-3-(1-(1-(3-phenylpropyl)piperidin-3-yl)-1H-benzo[d]imidazol-5-yl)acrylamide], on HDAC1 enzyme, the half-maximal inhibitory concentration (IC50) stood at 0.1 µM. Further, in the assay on Colo205 cells, the GI50 amounted to 0.67 µM.

`CC(C)(C)CCN1CCC(n2cnc3cc(/C=C/C(=O)NO)ccc32)C1` (stereo not shown) [Compound 99, 3-{1-[1-(3,3-Dimethyl-butyl)-pyrrolidin-3-yl]-1H-benzoimidazol-5-yl}-N-hydroxy-acrylamide]: at HDAC1 enzyme, the IC50 worked out at 0.12 µM. In the assay with Colo205 cells, the GI50 is 1.89 µM.

In the case of `CCN(CC)CCn1cnc2cc(/C=C/C(=O)NO)ccc21` [Compound 100, (E)-3-(1-(2-(diethylamino)ethyl)-1H-benzo[d]imidazol-5-yl)-N-hydroxyacrylamide], the IC50 on HDAC1 enzyme came out at 0.19 µM. The 50% growth inhibitory concentration (GI50) in the assay on Colo205 cells is 2.25 µM.

On to `CCN(CC)CCn1c(CCCCC#N)nc2cc(/C=C/C(=O)NO)ccc21` [Compound 101, 3-[2-(4-Cyano-butyl)-1-(2-diethylamino-ethyl)-1H-benzoimidazol-5-yl]-N-hydroxy-acrylamide], for which, at HDAC1 enzyme, the midpoint of inhibition, the IC50, lay at 0.08 µM. Besides, the GI50 in the assay on Colo205 cells stood at 2.44 µM.

Molecule `CCCCN1CCCC(n2cnc3cc(/C=C/C(=O)NO)ccc32)C1` (stereo not shown) [Compound 102, (E)-3-(1-(1-butylpiperidin-3-yl)-1H-benzo[d]imidazol-5-yl)-N-hydroxyacrylamide] displayed an IC50 against HDAC1 enzyme of 0.54 µM. Further, in the assay with Colo205 cells, the GI50 was determined as 2.08 µM.

As for `C=CCCCN1CCCC(n2cnc3cc(/C=C/C(=O)NO)ccc32)C1` (stereo not shown) [Compound 103, (E)-N-hydroxy-3-(1-(1-(pent-4-enyl)piperidin-3-yl)-1H-benzo[d]imidazol-5-yl)acrylamide], at HDAC1 enzyme, the IC50 turned out to be 0.1 µM. Moreover, the GI50 in the assay with Colo205 cells is 0.48 µM.

For the molecule `CC(C)(C)CCN1CCC(n2cnc3cc(/C=C/C(=O)NO)ccc32)CC1` [Compound 104, (E)-3-(1-(1-(3,3-dimethylbutyl)piperidin-4-yl)-1H-benzo[d]imidazol-5-yl)-N-hydroxyacrylamide], on HDAC1 enzyme, 0.41 µM corresponded to half-maximal inhibition (IC50). Moreover, the GI50 in the assay with Colo205 cells is 1.99 µM.

For the molecule `CCCNc1nc2cc(/C=C/C(=O)NO)ccc2n1CCN(CC)CC` [Compound 105, 3-[1-(2-Diethylamino-ethyl)-2-propylamino-1H-benzoimidazol-5-yl]-N-hydroxy-acrylamide], the IC50 on HDAC1 enzyme was found to be 0.13 µM. In the assay on Colo205 cells, the concentration for 50% growth inhibition (GI50) amounted to 1.77 µM.

For the molecule `CCCN(CCn1cnc2cc(/C=C/C(=O)NO)ccc21)C(C)C` [Compound 107, (E)-N-hydroxy-3-(1-(2-(isopropyl(propyl)amino)ethyl)-1H-benzo[d]imidazol-5-yl)acrylamide], half-maximal inhibition against HDAC1 enzyme (IC50) required 0.074 µM. The GI50 with Colo205 cells turned out to be 0.63 µM.

As to `CCCCCN(CCn1cnc2cc(/C=C/C(=O)NO)ccc21)C(C)C` [Compound 109, N-Hydroxy-3-{1-[2-(isopropyl-pentyl-amino)-ethyl]-1H-benzoimidazol-5-yl}-acrylamide], on HDAC1 enzyme, the IC50 amounted to 0.048 µM. Also, the GI50 with Colo205 cells was 0.49 µM.

Values taken from patent US8143282B2, “Heterocyclic compounds” (S*BIO Pte Ltd., priority 2005, dated 2012).
